{
  "source": "patent US8058258B2",
  "about": "“Methods for cancer therapy and stem cell modulation” (Agency for Science, Technology and Research, priority 2006, dated 2011)",
  "key": {"[1]": {"tested_on": "PRC2 components SUZ12, EZH2 and EED", "experiment": "Western blot of PRC2 protein levels after drug treatment", "format": "cell-based, human", "conditions": "HCT116 or MCF-7 cells, 5 μM, 48 and 72 hours", "protocol": "(§1) Cell lines used in these examples were purchased from the American Type Culture Collection (Manassas, Va.). Cells were maintained in DMEM supplemented with 10% fetal bovine serum with glutamine, penicillin, and streptomycin. For drug treatment, cells were seeded the day before the drug treatment. Cells were treated with 5 μM 3-Deazaneplanocin A or 2 μM 5-aza-2'-deoxycytidine (5-AzaC; Sigma) for 72 hours and trichostatin A (TSA; Sigma) at 100 nM for 24 hours. For co-treatment of cells with 5-AzaC and TSA, 5-Aza was added for 48 hours and followed by TSA for 24 hours. Cell pellets were first lysed in RadioImmuno Precipitation Assay (RIPA) buffer, consisting of an aqueous solution of 25 mM Tris-HCl pH 7.6, 150 mM NaCl, 1% Nonidet-P 40 (NP-40), 1% sodium deoxycholate and 0.1% sodium dodecylsulfate (SDS), before further sonicated using a tissue homogeniser to release all the proteins. Equal amounts of protein were separated on SDS-polyacrylamide gels and transferred to polyvinylidene difluoride (PVDF) membranes. The blots were probed with antibodies against: EED (07-368), SUZ12 (07-379), SUV39H1 (07-550), BMI1 (05-637), tri-methylated H3-K27 (07-449), tri-methylated H3-K9 (07-442) and Acetyl-Histone H3 (06-599), and were purchased from Upstate. EZH2 (AC22) and Histone H3 (3H1) were from Cell Signaling. […]"}, "DNMT1 or DNMT3B": {"tested_on": "DNMT1 or DNMT3B", "experiment": "Western blot of DNMT protein expression", "format": "cell-based, human", "conditions": "HCT116 or MCF-7 cells, 5 μM, 48 and 72 hours", "protocol": "as §1"}, "[2]": {"tested_on": "mRNA of EZH2, SUZ12 and EED", "experiment": "RT-PCR of mRNA levels of PRC2 proteins", "format": "cell-based", "conditions": "HCT116 cells, after 3-deazaneplanocin treatment", "protocol": "FIG. 1B depicts the analysis of the mRNA levels of the PRC2 proteins EZH2, SUZ12, and EED by reverse transcription (RT-PCR) before (-) and after (+)3-deazaneplanocin treatment. HCT116 cells were treated as in (a) and total RNA was isolated for RT-PCR analysis GAPDH served as a control. […] Accordingly, trimethylation of histone 3 at […] In contrast, histone H3 methylation at […] (H3-K9) was not affected by 3-deazaneplanocin treatment."}, "MCF-7 cells": {"tested_on": "MCF-7 cells", "experiment": "Cell death / apoptosis by PI staining and flow cytometry", "format": "cell-based, human", "conditions": "5 μM; for cell death: PI staining and flow cytometry, cell line not named in the sentence (FIG. 3A)", "protocol": "FIG. 3A depicts the detection of cell death of a variety of cancer cells upon exposure to 3-deazaneplanocin (DZNep) compared to untreated controls cells (DMSO=dimethyl sulfoxide). Breast cancer MCF-7 and MB-468 cells, colorectal HCT116, RKO and SW480 cells were treated with 5 μm 3-deazaneplanocin for 48 and 72 h, and cell death was detected by means of propodium iodide (PI) staining and flow cytometry analysis. Shown is the average of three independent experiments.\nCell lines used in these examples were purchased from the American Type Culture Collection (Manassas, Va.). Cells were maintained in DMEM supplemented with 10% fetal bovine serum with glutamine, penicillin, and streptomycin. For drug treatment, cells were seeded the day before the drug treatment. Cells were treated with 5 μM 3-Deazaneplanocin A or 2 μM 5-aza-2′-deoxycytidine (5-AzaC; Sigma) for 72 hours and trichostatin A (TSA; Sigma) at 100 nM for 24 hours. For co-treatment of cells with 5-AzaC and TSA, 5-Aza was added for 48 hours and followed by TSA for 24 hours.\nCells were trypsinised and washed with PBS and fixed in 70% ethanol and processed for propidium iodide staining and FACS analysis. For the caspase 3 activity assay and mitochondrial membrane potential detection, cells were stained with anti-active caspase 3 and JC-1, respectively, according to the manufacturer's instructions (BD Bioscience).\nIt was observed that 3-deazaneplanocin at 5 μM could induce 25% cell death at 48 hours and 45% of cell death at 72 hours, as determined by propodium iodide (PI) staining and flow cytometry analysis (FIG. 3A).\nTo determine whether 3-deazaneplanocin preferentially induces apoptosis in cancer cells, the apoptosis induction between MCF-7 cells and the non-cancerous breast epithelial MCF10A cells was compared for various periods of time. […] In addition, normal primary colon epithelial CC33D cells, like MCF10A cells, were also resistant to 3-deazaneplanocin treatment compared to colorectal cancer HCT116 cell, as evaluated by microscopy examination (FIGS. 3G & 3H)."}, "[3]": {"tested_on": "caspase 9, and poly(ADP-ribose) polymerase (PARP)", "experiment": "Western blot of caspase and PARP cleavage", "format": "cell-based", "conditions": "3-deazaneplanocin-treated cells (MCF-7, HCT116; 5 μM, 48 and 72 h)", "protocol": "FIG. 3E depicts a Western blot analysis of the activation of caspases. MCF-7 and HCT16 cells were treated with 5 μM 3-deazaneplanocin (“DZNep”) for 48 and 72 h before analysis of whole-cell extracts. Activation of caspases and poly(ADP-ribose) polymerase (“PARP”) was detected after 3-deazaneplanocin treatment. β-Actin (“Actin”) was used as a loading control.\nCell pellets were first lysed in RadioImmuno Precipitation Assay (RIPA) buffer, consisting of an aqueous solution of 25 mM Tris-HCl pH 7.6, 150 mM NaCl, 1% Nonidet-P 40 (NP-40), 1% sodium deoxycholate and 0.1% sodium dodecylsulfate (SDS), before further sonicated using a tissue homogeniser to release all the proteins. Equal amounts of protein were separated on SDS-polyacrylamide gels and transferred to polyvinylidene difluoride (PVDF) membranes. The blots were probed with antibodies against: EED (07-368), SUZ12 (07-379), SUV39H1 (07-550), BMI1 (05-637), tri-methylated H3-K27 (07-449), tri-methylated H3-K9 (07-442) and Acetyl-Histone H3 (06-599), and were purchased from Upstate. EZH2 (AC22) and Histone H3 (3H1) were from Cell Signaling. Antibodies against DNA methyl-transferases DNMT1 and DNMT3B were purchased from Alexis Biochemicals. […]"}, "[4]": {"conditions": "explored for antiviral treatment; cited from earlier work"}},
  "data": [
    {"smiles": "Nc1nccc2c1ncn2C1C=C(CO)C(O)C1O", "note": "(centres unmarked) [3-deazaneplanocin, 5-(4-amino-1H-imidazo[4,5-c]pyridin-1-yl)-3-(hydroxymethyl)-3-cyclopentene-1,2-diol]", "values": [
      {"measurement": "protein levels of PRC2 components SUZ12, EZH2 and EED", "setting": "[1]", "result": "dramatic decrease"},
      {"measurement": "DNMT1 or DNMT3B protein expression", "setting": "DNMT1 or DNMT3B", "result": "did not cause a change"},
      {"measurement": "mRNA levels of each of the PRC2 proteins (RT-PCR)", "setting": "[2]", "result": "remained unchanged"},
      {"measurement": "cell death", "setting": "MCF-7 cells; 48 hours", "result": 25, "unit": "%"},
      {"measurement": "cell death", "setting": "MCF-7 cells; 72 hours", "result": 45, "unit": "%"},
      {"measurement": "apoptosis induction over various periods of time", "setting": "MCF-7 cells; MCF-7 cells, FACS", "result": "progressive and marked apoptosis"},
      {"measurement": "cleavage of caspase 9, and poly(ADP-ribose) polymerase (PARP)", "setting": "[3]", "result": "easily detectable"},
      {"measurement": "toxicity in vivo", "setting": "[4]", "result": "minimal toxicity"}
    ]}
  ]
}
